Results: patent US20030083484A1, “Antisense modulation of short heterodimer partner-1 expression” (priority 2001, published 2003)
Strand notation (5' to 3'): a small letter for the sugar, then the base; units joined by * are phosphorothioate-linked, units joined directly phosphodiester-linked; [ ] holds rarer units or linkages, { } end groups; capitals alone tell only the bases. e = 2'-O-(2-methoxyethyl) (MOE); [5mC] = 5-methylcytosine; d = 2'-deoxy (DNA)

Legend:
[1] = system: mouse short heterodimer partner-1 mRNA; assay: Dose-response study: inhibition of mouse short heterodimer partner-1 mRNA levels in primary hepatocyte cells, quantitative real-time PCR; assay type: cell-based; details: averages from two experiments
Procedure: (§1) Primary mouse hepatocytes were prepared from CD-1 mice purchased from Charles River Labs (Wilmington, Mass.) and were routinely cultured in Hepatoyte Attachment Media (Gibco) supplemented with 10% Fetal Bovine Serum (Gibco/Life Technologies, Gaithersburg, Md.), 250 nM dexamethasone (Sigma), and 10 nM bovine insulin (Sigma). Cells were seeded into 96-well plates (Falcon-Primaria #3872) at a density of 10000 cells/well for use in RT-PCR analysis.
(§2) Cells were harvested 16-24 hours after oligonucleotide treatment.
(§3) Vacuum was applied for 15 seconds. […] The elution step was repeated with an additional 60 μL water.
(§4) Total RNA is quantified using RiboGreen™ RNA quantification reagent from Molecular Probes.
(§5) Probes and primers to mouse short heterodimer partner-1 were designed to hybridize to a mouse short heterodimer partner-1 sequence, using published sequence information (GenBank accession number L75567, incorporated herein as SEQ ID NO: 10).
In accordance with the present invention, a subset of the antisense oligonucleotides in Example 16 were further investigated in dose-response studies. Treatment doses were 50, 150 and 300 nM.

[2] = system: mouse short heterodimer partner-1 mRNA; assay: Inhibition of mouse short heterodimer partner-1 mRNA levels in primary hepatocytes, quantitative real-time PCR; assay type: cell-based; parameters: concentration or dose not given beside the values; details: averages from two experiments
Procedure: as §1, §2, §3, §4, §5
All cytidine residues are 5-methylcytidines. […] Data are averages from two experiments. If present, “N.D.” indicates “no data”.

Substance | Percent Inhibition of mouse short heterodimer partner-1 mRNA levels ([1]; 50 nM oligonucleotide) [%] | Percent Inhibition of mouse short heterodimer partner-1 mRNA levels ([1]; 150 nM oligonucleotide) [%] | Percent Inhibition of mouse short heterodimer partner-1 mRNA levels ([1]; 300 nM oligonucleotide) [%] | % INHIB (inhibition of mouse short heterodimer partner-1 mRNA levels) [2] [%]
148284 (antisense eG*eA*eG*eG*e[5mC]*dA*d[5mC]*d[5mC]*dA*dG*dA*d[5mC]*dT*d[5mC]*d[5mC]*eA*eT*eT*e[5mC]*e[5mC]) [compound 148284] | 6 | 55 | 86 | 77
148286 (antisense eA*eG*eT*e[5mC]*eA*dT*d[5mC]*dA*dA*dG*dG*dG*d[5mC]*dT*dT*eG*e[5mC]*eT*eG*eG) [compound 148286] | 42 | 58 | 80 | 71
148287 (antisense eG*eT*eT*e[5mC]*eT*dG*dT*dA*d[5mC]*dA*dA*dA*dG*dT*d[5mC]*eA*eG*eG*eA*eG) [compound 148287] | 44 | 71 | 89 | 74
